Reference: ChEMBL document CHEMBL1136115, “Constrained phytoestrogens and analogues as ERbeta selective ligands” (Bioorg Med Chem Lett, 2003)

How the values were obtained:
Estrogen receptor beta [1] = molecular target: T1, Estrogen receptor beta (Homo sapiens, UniProt Q92731)
Description: Binding affinity towards human estrogen receptor beta (ERbeta)

Estrogen receptor = molecular target: T2, Estrogen receptor (Homo sapiens, UniProt P03372)
T2 sequence (P03372 whole entry): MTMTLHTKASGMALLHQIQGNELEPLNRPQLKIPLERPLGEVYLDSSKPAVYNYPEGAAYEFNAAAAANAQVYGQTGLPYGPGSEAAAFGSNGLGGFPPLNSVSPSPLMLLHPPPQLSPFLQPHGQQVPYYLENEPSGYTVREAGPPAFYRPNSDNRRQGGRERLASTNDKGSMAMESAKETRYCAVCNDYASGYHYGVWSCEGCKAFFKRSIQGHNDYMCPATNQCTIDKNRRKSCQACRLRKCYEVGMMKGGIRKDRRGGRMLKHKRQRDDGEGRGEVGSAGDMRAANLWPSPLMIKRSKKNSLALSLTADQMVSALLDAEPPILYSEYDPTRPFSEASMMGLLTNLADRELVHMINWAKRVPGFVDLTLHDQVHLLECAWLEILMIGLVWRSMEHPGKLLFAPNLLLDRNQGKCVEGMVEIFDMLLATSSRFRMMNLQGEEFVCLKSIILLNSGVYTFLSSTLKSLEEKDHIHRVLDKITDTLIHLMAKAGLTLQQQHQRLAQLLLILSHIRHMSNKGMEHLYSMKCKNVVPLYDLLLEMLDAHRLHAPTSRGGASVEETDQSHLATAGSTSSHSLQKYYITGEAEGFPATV
Description: Binding affinity towards human estrogen receptor alpha(ERalpha)

[2] = molecular target: T3, Estrogen receptor (Homo sapiens) (UniProt P03372); assay: Effective dose in ERalpha-MCF-7 cells; assay type: functional, cell-based
T3 sequence (whole entry): T2 sequence (P03372 whole entry)

[3] = molecular target: T3, Estrogen receptor (Homo sapiens); assay: Efficacy in ER alpha-MCF-7 cells; assay type: functional, cell-based
Estrogen receptor beta [4] = molecular target: T1, Estrogen receptor beta; assay: Effective dose in metallothionein-II using metallothionein assay

T1 sequence (Q92731 whole entry): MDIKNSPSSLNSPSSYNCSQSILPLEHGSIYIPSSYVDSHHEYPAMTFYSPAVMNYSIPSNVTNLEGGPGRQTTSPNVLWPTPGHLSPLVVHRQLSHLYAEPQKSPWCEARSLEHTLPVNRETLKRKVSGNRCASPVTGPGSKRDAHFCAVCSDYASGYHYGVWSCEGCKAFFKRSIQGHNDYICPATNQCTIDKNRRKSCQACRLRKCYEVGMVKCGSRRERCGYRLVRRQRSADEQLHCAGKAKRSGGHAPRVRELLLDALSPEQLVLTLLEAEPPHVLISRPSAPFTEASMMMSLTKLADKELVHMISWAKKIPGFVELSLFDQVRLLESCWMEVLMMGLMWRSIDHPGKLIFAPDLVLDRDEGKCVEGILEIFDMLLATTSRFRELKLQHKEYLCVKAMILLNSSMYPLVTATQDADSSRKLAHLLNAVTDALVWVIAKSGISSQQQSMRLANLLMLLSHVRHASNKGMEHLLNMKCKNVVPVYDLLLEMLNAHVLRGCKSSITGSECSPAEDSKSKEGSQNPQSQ

Row | SMILES | IC50 (Estrogen receptor beta [1]) | IC50 (Estrogen receptor) | ED50 [2] | Efficacy [3] | ED50 (Estrogen receptor beta [4])
1 | O=c1c2oc3ccc(O)cc3c2oc2cc(O)cc(O)c12 | 0.042 µM |  | > 0.5 µM | 58% | 0.018 µM
2 | O=c1c2c(O)cc(O)cc2oc2oc3cc(O)ccc3c12 | 0.0017 µM |  |  |  | 
3 | O=c1c2ccc(O)cc2oc2c1oc1c(Br)cc(O)cc12 | 1.74 µM | > 5 µM |  |  | 
4 | N#Cc1cc(O)cc2c1oc1c(=O)c3ccc(O)cc3oc12 | > 5 µM | > 5 µM |  |  | 

Second part, the compound after the results:

Row | IC50 (Estrogen receptor beta [1]) | IC50 (Estrogen receptor) | ED50 [2] | Efficacy [3] | ED50 (Estrogen receptor beta [4]) | SMILES
5 | 1.34 µM | 1.55 µM |  |  |  | N#Cc1cc(O)cc2c1oc1c(=O)c3c(O)cc(O)cc3oc12
6 |  | > 5 µM |  |  |  | O=c1c2ccc(O)cc2oc2c1oc1ccccc12
7 |  | > 5 µM |  |  |  | O=c1c2ccccc2oc2c1oc1cc(O)ccc12
8 |  | 0.18 µM |  |  |  | O=c1c2cc(O)ccc2oc2c1oc1ccc(O)cc12
9 | 0.343 µM | 1.26 µM |  |  |  | O=c1c2oc3c(Br)cc(O)cc3c2oc2cc(O)cc(O)c12
